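Briefly, cells in 96-well plates were exposed to five compound concentrations for 48 h, and endpoints were estimated by linear interpolation. TGI is the concentration that stops growth completely.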

Experiment in all cases: NCI-60 cell line screen, 48 h
Test [1] deals with DU-145 prostate.
The test system of test [2] is A549 NSCLC.
Test [3] deals with BT-549 breast.
Test [4] deals with RPMI-8226 leukemia.
Test [5] has as its system UACC-62 melanoma.
The subject of test [6] is MCF7 breast.
In test [7] the test system is SNB-75 CNS.
Test [8] concerns LOX IMVI melanoma.
Test [9] deals with K-562 leukemia.
Test [10] relates to MDA-MB-435.
In test [11] the test system is MDA-N.
For test [12], the system named is HOP-92 NSCLC.
The test system of test [13] is T-47D breast.
Test [14] has as its system HT29 colon.
The subject of test [15] is HOP-62 NSCLC.
In test [16] the test system is SK-OV-3 ovarian.
Test [17] relates to SK-MEL-2 melanoma.
Test [18] deals with NCI-H23 lung.
Test [19] deals with SF-295 CNS.
Test [20] concerns NCI-H460 lung.

Take `CCN(CC)CCC(=O)c1ccc(Oc2ccccc2)cc1`: the TGI in test [1] was 71.2 µM; in test [2], over 100 µM; in [3], 33.5 µM; in test [4] it was 39.2 µM; in test [5], 29.3 µM; in [6] it was 38.5 µM. Further, the TGI in test [7] was 52 µM; in test [8], 31.3 µM; in [9], over 100 µM; in test [10], 40.2 µM; in test [11], 30.1 µM; in test [12], 30.1 µM. For the same compound, the TGI in test [13] is 42 µM; in test [14], 38.3 µM; in test [15] it was 77.4 µM; in [16], over 100 µM; in test [17], over 100 µM; in test [18], 78.5 µM. This compound also registered a TGI in test [19] of over 100 µM.

With `COC(=O)c1c(O)ccc2c1c1c(n2-c2ccc(OC)cc2)C(=O)c2ccccc2C1=O`, the TGI in [1] is 48.3 µM; in [2] it was 32.2 µM; in test [3], 84.9 µM; in test [4], over 100 µM; in test [6], 72.4 µM; in [7], 51.5 µM. For the same compound, the TGI in [8] is over 100 µM; in [9] it was over 100 µM; in test [10] it was over 100 µM; in test [11], over 100 µM; in test [12], 36.7 µM; in [13], 66.2 µM. Besides, the TGI in [14] was 15.2 µM; in test [15] it was 34.5 µM; in test [16] it was 39.2 µM; in [17], over 100 µM; in [18] it was over 100 µM; in [20], 61.7 µM. The compound further came in with a TGI in [19] of 44.1 µM.

Consider `CC(=O)N1N=C(c2c(O)ccc3ccccc23)CC1c1ccc(Cl)cc1` (configuration not stated), for which the TGI in [1] was over 100 µM; in test [2] it was over 100 µM; in test [3], 51.1 µM; in test [4], 45.8 µM; in test [5] it was 27.6 µM; in [6] it was 35.1 µM. Besides, the TGI in test [7] was over 100 µM; in test [9], 43.3 µM; in test [10] it was 51.9 µM; in test [11], 40.5 µM; in [12], 39.5 µM; in test [13] it was over 100 µM. The TGI in test [14] was 69.5 µM; in test [15], 37 µM; in test [16], over 100 µM; in [17], 38.2 µM; in [18], 46.5 µM; in [20], 48.1 µM. The TGI in test [19] was found to be 54.2 µM.

As for `Nc1cccc(C#Cc2cccc(C#Cc3cccc(N)n3)n2)n1`, the TGI in [1], in [3], in [4], in test [5], in [6] and in test [7] was over 100 µM each time. For the same compound, the TGI in test [8], in [9], in test [10], in [11], in test [12] and in test [13] was over 100 µM in each case. The TGI in test [15], in [16], in [17], in [18], in test [20] and in [19] was over 100 µM each time.

On to `Cc1cc(N)ccc1C=O`, for which the TGI in test [1], in test [2], in [3], in test [4], in test [5] and in test [6] was over 100 µM throughout. Besides, the TGI in test [7], in test [8], in test [9], in test [10], in [11] and in [12] was over 100 µM throughout. In addition, the TGI in test [13], in [14], in test [15], in test [16], in test [17] and in test [18] was over 100 µM in each case. In [20], the TGI was over 100 µM.

As to `N#C/C(=C\c1ccc(Br)cc1)c1nc(-c2cc3ccccc3oc2=O)cs1`, the TGI in test [1] was over 50 µM; in test [2], over 50 µM; in [3] it was 14.5 µM; in [4], over 50 µM; in [5] it was 23.7 µM; in test [6], over 50 µM. Also, the TGI was 30.6 µM in test [7]; over 50 µM in test [8]; over 50 µM in test [9]; over 50 µM in [10]; over 50 µM in test [11]; 36.6 µM in test [12]. Moreover, the TGI was over 50 µM in [13]; over 50 µM in test [14]; 20.1 µM in test [15]; over 50 µM in test [16]; over 50 µM in test [17]; over 50 µM in test [20]. This compound registered a TGI in test [19] of over 50 µM.

Consider `O=C1NC(=NC2CCCCC2)C2(CCN(CCCC3(c4ccc(F)cc4)OCCO3)CC2)N1c1ccccc1`, for which the TGI turned out to be 33.8 µM in [1]; 46.3 µM in test [2]; 18.5 µM in test [3]; 64.5 µM in test [4]; 48.3 µM in [6]; 29.8 µM in test [7]. Besides, the TGI came to 39 µM in test [8]; 42.5 µM in test [10]; 28.7 µM in [11]; 53.2 µM in [13]; 33.1 µM in test [14]; 31.8 µM in test [15]. Moreover, the TGI in [16] is 42.7 µM; in test [17], 30.2 µM; in test [18] it was 34.3 µM; in test [19], 35.1 µM.

Regarding `COc1ccc2c(c1)CCCN1Cc3ccccc3CC21` (configuration not stated), the TGI in [1], in [2], in test [3], in test [5], in [6] and in test [7] was over 100 µM in each case. Further, the TGI in [8], in test [9], in test [10], in test [11], in [12] and in test [13] was over 100 µM throughout. Moreover, the TGI in test [14], in test [15], in test [16], in [18], in test [20] and in [19] was over 100 µM in each case.

In the case of `CC[N+]1(C)CCC(O)(/C=C/c2ccc(Cl)cc2)C(C(=O)/C=C/c2ccc(Cl)cc2)C1` (configuration not stated), the TGI in [1] was 27.6 µM; in test [2], 43 µM; in [3], 39.3 µM; in test [5], 37.4 µM; in [6], over 36.6 µM; in [7], 26.7 µM. The TGI in test [8] was over 21.6 µM; in test [9] it was 5.71 µM; in test [10], 22.4 µM; in [11], over 34.4 µM; in test [12], 9.11 µM; in test [13], 77.4 µM. The TGI in test [14] is 14.1 µM; in test [15], 39.3 µM; in test [16] it was 36.8 µM; in test [17], 39 µM; in test [18] it was 30.3 µM; in [20] it was over 28.2 µM. In test [19], the TGI was determined as 37 µM.

As for `CCCCc1ccc(Nc2nc(N)c3ncn(COCCO)c3n2)cc1`, the TGI in [1] was over 100 µM; in [2], over 100 µM; in test [3] it was 59.8 µM; in test [4] it was 94.2 µM; in test [5], 38.5 µM; in test [6] it was over 100 µM. The TGI in [7] is 80.4 µM; in test [8], 37.4 µM; in test [9], over 100 µM; in [10], 51.2 µM; in test [11], over 100 µM; in [12], 45.1 µM. For the same compound, the TGI in test [13] is 91.6 µM; in test [14], 57.2 µM; in [15] it was 45.1 µM; in test [16] it was 26.9 µM; in test [17], 37.5 µM; in [18], 56.3 µM. In test [19], the TGI was found to be 41.2 µM.

Turning to `CN(C)CCNC(=O)c1cc(-c2nccn2C)nc2ccccc12`, the TGI in test [1], in test [2], in test [3], in test [4], in test [5] and in test [6] was over 100 µM throughout. Also, the TGI in test [7], in test [8], in test [9], in test [10], in test [11] and in [12] was over 100 µM each time. Besides, the TGI in [13], in test [14], in test [15], in [17], in [18] and in [20] was over 100 µM throughout.

As to `CN(C)/C=C/c1nnnn1-c1ccc(I)cc1`, the TGI in test [1] is 74.5 µM; in test [2], over 100 µM; in [3], 92 µM; in test [4] it was 46.5 µM; in [5], 31.1 µM; in test [6] it was 65 µM. The TGI in [7] came to 32.2 µM; in [8], 41.1 µM; in test [9], 44.5 µM; in test [10], 60.7 µM; in test [11] it was 74.2 µM; in [12], 34.7 µM. The TGI in test [13] was 44 µM; in test [14], 59.2 µM; in test [15], over 100 µM; in test [16], 53.3 µM; in test [18], 56.1 µM; in test [20], over 100 µM. The same compound returned a TGI in test [19] of over 100 µM.

Turning to `Cc1nn(C(=O)Cc2ccccc2)c2c1C(c1ccccc1[N+](=O)[O-])SC(N)=N2` (configuration not stated), the TGI in [1], in test [2], in test [3], in [4], in test [5] and in test [6] was over 100 µM in each case. Moreover, the TGI in test [7], in [8], in test [9], in test [10], in test [11] and in test [13] was over 100 µM throughout. Moreover, the TGI in [14], in test [15], in test [16], in [18], in [20] and in [19] was over 100 µM in each case.

As for `O=C1c2ccccc2-c2c1c(-c1ccccc1)c1n2C2(C(=O)c3ccccc3C2=O)C2C(=O)N(c3ccccc3)C(=O)C12` (configuration not stated), the TGI in test [1] is over 100 µM; in [2], over 100 µM; in [3] it was 45.2 µM; in test [5], 49 µM; in test [6] it was 73.4 µM; in test [7], 79.2 µM. Besides, the TGI turned out to be 32.8 µM in test [8]; 50.3 µM in test [10]; 65.3 µM in test [11]; 73.7 µM in [12]; 65.7 µM in test [13]; 41.6 µM in test [14]. The TGI in test [15] was 63.7 µM; in test [16], over 100 µM; in test [17], 51.4 µM; in test [18] it was 37.4 µM; in [20] it was 36.9 µM; in test [19], over 100 µM.

`CN1CCN(CCCCN2c3ccccc3Sc3ccc(N=[N+]=[N-])cc32)CC1`: the TGI in test [1] was determined as 26.6 µM; in test [2], 29.3 µM; in test [3] it was 26.9 µM; in test [4], 5.61 µM; in [5] it was 4.1 µM; in test [6], 9.75 µM. The TGI in test [7] came out at 16.2 µM; in [8], 7.59 µM; in test [9], 4.07 µM; in [10], 3.94 µM; in test [11] it was 6.96 µM; in test [12] it was 12.3 µM. Besides, the TGI was found to be 36.2 µM in [13]; 4.59 µM in [14]; 33.8 µM in [15]; 12.9 µM in [17]; 35.7 µM in [18]; 17.4 µM in [20]. Further, the TGI in [19] worked out at 27.9 µM.

Values taken from PubChem BioAssay (NCI).
